Measured values taken from ChEMBL document CHEMBL6103543, “Exploring the rhodanine universe: Design and synthesis of fluorescent rhodanine-based derivatives as anti-fibrillar and anti-oligomer agents against α-synuclein and 2N4R tau” (Bioorg Med Chem, 2024).
Activity calls are given as the source filed them. The calls are words filed in the database; no cut-off is given here.

biological target: T1, Alpha-synuclein (Homo sapiens, UniProt P37840); test: Inhibition of recombinant alpha-synuclein (unknown origin) fibril formation assessed as decrease in aggregation at 100 uM incubated for 3 days by transmission electron microscopic analysis; conditions: time 3.0 day

SMILES | inhibition
O=C(O)CCN1C(=O)/C(=C/c2nc3ccccc3s2)SC1=S | Active; Powerful Inhibition Observed
O=C(O)CN1C(=O)/C(=C/c2nc3ccccc3s2)SC1=S | Active; Powerful Inhibition Observed

biological target: T1, Alpha-synuclein; test: Inhibition of recombinant alpha-synuclein (unknown origin) fibril formation assessed as thioflavin T fluorescence intensity at 100 uM measured every 20 mins by Thioflavin T fluorescence assay (reference value: 100 %); conditions: not given

SMILES | Flu intensity [%]
O=C(O)CCN1C(=O)/C(=C/c2coc3ccccc23)SC1=S | 31.8
O=C(O)c1ccc(N2C(=O)/C(=C/c3coc4ccccc34)SC2=S)cc1 | 15.3
O=C(O)c1ccc(N2C(=O)/C(=C/c3nc4ccccc4s3)SC2=S)cc1 | 31.8
O=C(O)CN1C(=O)/C(=C/c2cn(CCO)c3ccccc23)SC1=S | 27
O=C(O)c1ccc(N2C(=O)/C(=C/c3coc4ccccc34)SC2=S)cc1O | 29.1
O=C(O)CCN1C(=O)/C(=C/c2nc3ccccc3s2)SC1=S | 12.1
O=C(O)CN1C(=O)/C(=C/c2nc3ccccc3s2)SC1=S | 0.8

biological target: T1, Alpha-synuclein; test: Inhibition of alpha-synuclein (unknown origin) oligomer formation assessed as reduction in cross linking at 100 uM preincubated with compound followed by Ru(BPY3) addition and measured after 1 sec light irradiation by coomassie blue staining based PICUP assay; conditions: not given

SMILES | inhibition
O=C(O)CCN1C(=O)/C(=C/c2coc3ccccc23)SC1=S | inactive
O=C(O)c1ccc(N2C(=O)/C(=C/c3coc4ccccc34)SC2=S)cc1 | inactive
O=C(O)c1ccc(N2C(=O)/C(=C/c3nc4ccccc4s3)SC2=S)cc1 | inactive
O=C(O)CN1C(=O)/C(=C/c2cn(CCO)c3ccccc23)SC1=S | Active
O=C(O)c1ccc(N2C(=O)/C(=C/c3coc4ccccc34)SC2=S)cc1O | inactive
O=C(O)CCN1C(=O)/C(=C/c2nc3ccccc3s2)SC1=S | inactive
O=C(O)CN1C(=O)/C(=C/c2nc3ccccc3s2)SC1=S | inactive
